In ChEMBL document CHEMBL1152396, “Cardenolides from Pergularia tomentosa display cytotoxic activity resulting from their potent inhibition of Na+/K+-ATPase” (J Nat Prod, 2009):
Activity calls are given as the source filed them. No cut-off for these calls is given here.

Columns and labels:
MCF7 = test: Antiproliferative activity against human MCF7 cells after 72 hrs by MTT assay; type: functional, cell-based; conditions: MCF7, 72 h
[1] = Antiproliferative activity against human U373 cells after 72 hrs by MTT assay; type: functional, cell-based, U-373MG ATCC; conditions: U373 MG
BXPC-3 = test: Antiproliferative activity against human BxPC3 cells after 72 hrs by MTT assay; type: functional, cell-based; conditions: BXPC-3, 72 h
[2] = Inhibition of pig cerebral cortex Na+/K+-ATPase by colorimetric microplate-based assay; type: tissue-based, Sus scrofa
PC-3 = test: Antiproliferative activity against human PC3 cells after 72 hrs by MTT assay; type: functional, cell-based; conditions: PC-3, 72 h
A549 [3] = test: Antiproliferative activity against human A549 cells after 72 hrs by MTT assay; type: functional, cell-based; conditions: A549, 72 h
LoVo = test: Antiproliferative activity against human LoVo cells after 72 hrs by MTT assay; type: functional, cell-based
U-373MG ATCC [4] = test: Induction of human U373 cell growth delay assessed as morphological changes at 400 nM after 3 days by video microscopy; type: functional, cell-based
U-373MG ATCC [5] = test: Induction of human U373 cell death assessed as morphological changes at 400 nM after 3 days by video microscopy; type: functional, cell-based
A549 [6] = test: Induction of human A549 cell growth delay assessed as morphological changes at 80 nM after 3 days by video microscopy; type: functional, cell-based
A549 [7] = test: Induction of human A549 cell death assessed as morphological changes at 80 nM after 3 days by video microscopy; type: functional, cell-based
Sus scrofa = species: Sus scrofa; test: Inhibition of pig cerebral cortex Na+/K+ ATPase at 1 mM by colorimetric microplate-based assay; type: tissue-based
A549 [8] = test: Induction of human A549 cell growth delay assessed as morphological changes at 200 nM after 3 days by video microscopy; type: functional, cell-based
A549 [9] = test: Induction of human A549 cell death assessed as morphological changes at 200 nM after 3 days by video microscopy; type: functional, cell-based
U-373MG ATCC [10] = test: Induction of human U373 cell death assessed as morphological changes at 3.4 uM after 3 days by video microscopy; type: functional, cell-based
A549 [11] = test: Induction of human A549 cell growth delay assessed as morphological changes at 800 nM after 3 days by video microscopy; type: functional, cell-based
U-373MG ATCC [12] = test: Induction of human U373 cell growth delay assessed as morphological changes at 3.4 uM after 3 days by video microscopy; type: functional, cell-based
A549 [13] = test: Induction of human A549 cell death assessed as morphological changes at 800 nM after 3 days by video microscopy; type: functional, cell-based

| Compound | IC50 (MCF7) | IC50 [1] | IC50 (BXPC-3) | IC50 [2] | IC50 (PC-3) | IC50 (A549 [3]) | IC50 (LoVo) | Activity (U-373MG ATCC [4]) | Activity (U-373MG ATCC [5]) | Activity (A549 [6]) | Activity (A549 [7]) | inhibition (Sus scrofa) | Activity (A549 [8]) | Activity (A549 [9]) | Activity (U-373MG ATCC [10]) | Activity (A549 [11]) | Activity (U-373MG ATCC [12]) | Activity (A549 [13]) |
| --- | --- | --- | --- | --- | --- | --- | --- | --- | --- | --- | --- | --- | --- | --- | --- | --- | --- | --- |
| C[C@]12CC[C@H]3[C@@H](CC[C@H]4C[C@H]5O[C@@H]6O[C@H](CO)C[C@@H](O)[C@]6(O)O[C@@H]5C[C@@]43C=O)[C@@]1(O)CC[C@@H]2C1=CC(=O)OC1 | 0.5 µM | 0.4 µM | 0.6 µM | 0.5 µM | 0.3 µM | 0.08 µM | 0.9 µM | – | – | – | – | – | – | – | – | – | – | – |
| C[C@@H]1C[C@@H](O)[C@]2(O)O[C@@H]3C[C@@]4(CO)[C@@H](CC[C@@H]5[C@@H]4C[C@@H](O)[C@]4(C)[C@@H](C6=CC(=O)OC6)CC[C@]54O)C[C@H]3O[C@@H]2O1 | 0.3 µM | 0.4 µM | 0.3 µM | 0.7 µM | 0.05 µM | 0.05 µM | 0.3 µM | – | – | – | – | – | – | – | – | – | – | – |
| C[C@]12[C@H](O)C[C@H]3[C@@H](CC[C@H]4C[C@H]5O[C@@H]6O[C@H](CO)C[C@@H](O)[C@]6(O)O[C@@H]5C[C@@]43CO)[C@@]1(O)CC[C@@H]2C1=CC(=O)OC1 [GHALAKINOSIDE] | 0.3 µM | 0.4 µM | 0.3 µM | 0.3 µM | 0.08 µM | 0.08 µM | 0.3 µM | Active | Active | Active | Active | – | – | – | – | – | – | – |
| C[C@]12CC[C@H]3[C@@H](CC[C@H]4C[C@H]5O[C@@H]6O[C@H](CO)C[C@@H](O)[C@]6(O)O[C@@H]5C[C@@]43CO)[C@@]1(O)CC[C@@H]2C1=CC(=O)OC1 | 0.4 µM | 0.1 µM | 0.3 µM | 0.4 µM | 0.04 µM | 0.04 µM | 0.2 µM | – | – | – | – | – | – | – | – | – | – | – |
| C[C@@H]1CC2(NC(=O)CS2)[C@]2(O)O[C@@H]3C[C@@]4(CO)[C@@H](CC[C@@H]5[C@@H]4CC[C@]4(C)[C@@H](C6=CC(=O)OC6)CC[C@]54O)C[C@H]3O[C@@H]2O1 (stereo not given in full) | – | – | – | – | – | 0.008 µM | – | – | – | – | – | – | – | – | – | – | – | – |
| C[C@@H]1C[C@@H](O)[C@]2(O)O[C@@H]3C[C@@]4(C=O)[C@@H](CC[C@@H]5[C@@H]4CC[C@]4(C)[C@@H](C6=CC(=O)OC6)CC[C@]54O)C[C@H]3O[C@@H]2O1 [CALACTIN] | 0.04 µM | 0.2 µM | 0.08 µM | 0.4 µM | 0.02 µM | 0.02 µM | 0.05 µM | – | – | – | – | – | – | – | – | – | – | – |
| C[C@@H]1O[C@@H](O[C@H]2C[C@@H](O)[C@]3(CO)[C@H]4[C@H](O)C[C@]5(C)[C@@H](C6=CC(=O)OC6)CC[C@]5(O)[C@@H]4CC[C@]3(O)C2)[C@H](O)[C@H](O)[C@H]1O | – | – | – | – | – | – | – | – | – | – | – | 100% | – | – | – | – | – | – |
| C[C@@H]1C[C@@H](O[C@H]2O[C@H](CO)[C@@H](O)[C@H](O)[C@H]2O)[C@]2(O)O[C@@H]3C[C@@]4(C=O)[C@@H](CC[C@@H]5[C@@H]4CC[C@]4(C)[C@@H](C6=CC(=O)OC6)CC[C@]54O)C[C@H]3O[C@@H]2O1 | 0.3 µM | 0.4 µM | 0.5 µM | 0.5 µM | 0.2 µM | 0.2 µM | 0.4 µM | Active | Active | – | – | – | Active | Active | – | – | – | – |
| CC(=O)O[C@@H]1C[C@]2(O)[C@@H]3CC[C@H]4C[C@H]5O[C@@H]6O[C@H](CO)C[C@@H](O)[C@]6(O)O[C@@H]5C[C@]4(C=O)[C@H]3CC[C@]2(C)[C@H]1C1=CC(=O)OC1 | 4.1 µM | 3.4 µM | 4.4 µM | 1.2 µM | 1.2 µM | 0.8 µM | 6.4 µM | – | – | – | – | – | – | – | Active | Active | Active | Active |
| C[C@@H]1C[C@@H](O)[C@]2(O)O[C@@H]3C[C@@]4(C=O)[C@@H](CC[C@@H]5[C@@H]4CC[C@]4(C)[C@@H](C6=CC(=O)OC6)[C@H](O)C[C@]54O)C[C@H]3O[C@@H]2O1 | 3.8 µM | 2.6 µM | 2.3 µM | 1.7 µM | 1 µM | 0.4 µM | 4.4 µM | – | – | – | – | – | – | – | – | – | – | – |
